Measured values published in EPA's ToxValDB 9.5.

Experiments:
Mus musculus [1] = system: Mus musculus
Oryctolagus sp. = details: reproduction developmental; duration: 13 days; oral; F; New Zealand
Mus musculus [2] = details: uterotrophic; duration: 3 days; oral; Active
[3] = developmental, duration: 5 days, oral, F, Developmental: Delay in vaginal opening at 5 mg/kg and mammary gland growth stimulation a 5 mg/kg and inhibition at 10 mg/kg
[4] = developmental, duration: 7 days, oral, F, Kunming, Developmental: Increased resorbed embryos at 10 mg/kg/day in GD 13 group
[5] = developmental, duration: 17 days, oral, F, C57BL/6, Developmental: Developmental delays in the mammary glands on PNDs 21 (38%) and 61 (25%)
[6] = developmental, duration: 17 days, oral, F, CD1, Developmental: Increased ambulatory activity and decreased methamphetamineinduced activity
[7] = developmental, duration: 17 days, oral, F, Developmental: Decrease in number of successful births
[8] = developmental, duration: 17 days, oral, F, Hepatic: Centrilobular hepatocyte hypertrophy and bile duct hyperplasia at 3 mg/kg/day
[9] = reproduction developmental, duration: 17 days, oral, F, CD1, Hepatic: Increase in severity of chronic inflammation at ?1 mg/kg/day / Ito cell hypertrophy and centrilobular hepatocellular hypertrophy …
[10] = short-term, duration: 4 days, dermal, F, BALB/c, Hepatic: 52% increase in absolute liver weight
[11] = short-term, duration: 4 days, dermal, F, BALB/c, Immunotoxicological: Increased serum IgE following ovalbumin challenge
[12] = short-term, duration: 5 days, oral, F, BALB/c, Body Weight: 13% decrease in body weight gain
[13] = short-term, duration: 5 days, oral, F, Body Weight: 10% decrease in body weight gain
[14] = short-term, duration: 10 days, oral, F, Immunotoxicological: Altered response to sRBC

SMILES: O=C(O)C(F)(F)C(F)(F)C(F)(F)C(F)(F)C(F)(F)C(F)(F)C(F)(F)F [Perfluorooctanoic acid]
- LOAEL (Mus musculus [1]; developmental, duration: 5 days, oral, F, BALB/c, Developmental: Delay in vaginal opening at 1 mg/kg and mammary gland growth inhibition at 5 and 10 mg/kg): 1 mg/kg-day
- LOAEL (Mus musculus [1]; [3]): 5 mg/kg-day
- NOAEL (Mus musculus [1]; [3]): 1 mg/kg-day
- LOAEL (Mus musculus [1]; developmental, duration: 5 days, oral, F, Developmental: Mammary gland growth stimulation): 5 mg/kg-day
- LOAEL (Mus musculus [1]; [4]): 10 mg/kg-day
- NOAEL (Mus musculus [1]; [4]): 5 mg/kg-day
- LOAEL (Mus musculus [1]; developmental, duration: 15 days, oral, F, C57BL/6, Developmental: Increased horizontal and ambulatory locomotor activity and decreased resting time in males / decrease in novel object …): 0.1 mg/kg-day
- LOAEL (Mus musculus [1]; [5]): 0.3 mg/kg-day
- NOAEL (Mus musculus [1]; [5]): 0.1 mg/kg-day
- LOAEL (Mus musculus [1]; developmental, duration: 17 days, oral, F, CD1, Developmental: Developmental delays in mammary gland development): 0.01 mg/kg-day
- LOAEL (Mus musculus [1]; developmental, duration: 17 days, oral, F, CD1, Developmental: Developmental delays in the mammary glands on PNDs 35 (26%) and 56 (30%)): 0.01 mg/kg-day
- LOAEL (Mus musculus [1]; developmental, duration: 17 days, oral, F, CD1, Developmental: Impaired development of mammary glands in offspring): 0.3 mg/kg-day
- LOAEL (Mus musculus [1]; [6]): 1 mg/kg-day
- NOAEL (Mus musculus [1]; [6]): 0.3 mg/kg-day
- LOAEL (Mus musculus [1]; developmental, duration: 17 days, oral, F, Developmental: 31.5% reduced pups per litter on PND 20): 3 mg/kg-day
- LOAEL (Mus musculus [1]; [7]): 3 mg/kg-day
- NOAEL (Mus musculus [1]; [7]): 0.1 mg/kg-day
- NOAEL (Mus musculus [1]; developmental, duration: 17 days, oral, F, Hepatic: 28% increased liver weight, hepatocellular hypertrophy with increased peroxisomes): 3 mg/kg-day
- LOAEL (Mus musculus [1]; [8]): 3 mg/kg-day
- NOAEL (Mus musculus [1]; [8]): 1 mg/kg-day
- LOAEL (Mus musculus [1]; developmental, duration: 18 days, oral, F, ICR, Developmental: 14% increased neonatal mortality, 9.5% reduced fetal body weight): 5 mg/kg-day
- NOAEL (Mus musculus [1]; developmental, duration: 18 days, oral, F, ICR, Developmental: 14% increased neonatal mortality, 9.5% reduced fetal body weight + Hepatic: 35% increased maternal relative liver weight with…): 1 mg/kg-day
- LOAEL (Mus musculus [1]; developmental, duration: 20 days, oral, diet, M/F, C57BL/6, developmental): 8.29 mg/L
- LOAEL (Mus musculus [1]; developmental, duration: 21 days, oral, F, C57BL/6, Developmental: Altered femur and tibial bone morphology, decreased tibial mineral density): 0.3 mg/kg-day
- LOAEL (Mus musculus [1]; developmental, duration: 21 days, oral, M/F, Developmental: Altered exploratory behavior in adult offspring (increased in males and decreased in females) / increased global activity in…): 0.3 mg/kg-day
- LOAEL (Mus musculus [1]; reproduction developmental, duration: 7 days, oral, F, Kunming, Reproductive: Decreases in progesterone levels at ?5 mg/kg in GD 13 group / increased serum estradiol level at 10 mg/kg/day on GD 7 / …): 2.5 mg/kg-day
- LOAEL (Mus musculus [1]; [9]): 1 mg/kg-day
- NOAEL (Mus musculus [1]; [9]): 0.3 mg/kg-day
- NOAEL (Mus musculus [1]; reproduction developmental, duration: 17 days, oral, F, Hepatic: Increased severity of centrilobular hepatocyte hypertrophy at ?0.3 mg/kg/day): 1 mg/kg-day
- LOAEL (Mus musculus [1]; reproduction developmental, duration: 17 days, oral, M/F, CD1, Hepatic: Increased severity of hepatocellular hypertrophy at PND 91 and periportal inflammation on PND 21 at ?0.01 mg/kg/day (incidence was …): 0.01 mg/kg-day
- LOAEL (Mus musculus [1]; reproduction developmental, duration: 18 days, oral, F, ICR, Hepatic: 35% increased maternal relative liver weight with hepatocellular hypertrophy at ?1 mg/kg/day / single cell necrosis and mild …): 10 mg/kg-day
- LOAEL (Mus musculus [1]; short-term, duration: 3 weeks, oral, M, Hepatic: Hepatocellular hypertrophy and degeneration): 5 mg/kg-day
- NOAEL (Mus musculus [1]; short-term, duration: 4 days, dermal, F, BALB/c): 50 mg/kg-day
- LOAEL (Mus musculus [1]; [10]): 6.25 mg/kg-day
- NOAEL (Mus musculus [1]; [10]): 2.5 mg/kg-day
- LOAEL (Mus musculus [1]; [11]): 18.8 mg/kg-day
- NOAEL (Mus musculus [1]; [11]): 12.5 mg/kg-day
- LOAEL (Mus musculus [1]; [12]): 10 mg/kg-day
- NOAEL (Mus musculus [1]; [12]): 5 mg/kg-day
- NOAEL (Mus musculus [1]; short-term, duration: 5 days, oral, F, BALB/c, Hepatic: Increases in liver weight and hepatocellular hypertrophy at ?1 mg/kg): 10 mg/kg-day
- LOAEL (Mus musculus [1]; [13]): 10 mg/kg-day
- NOAEL (Mus musculus [1]; [13]): 5 mg/kg-day
- LOAEL (Mus musculus [1]; short-term, duration: 5 days, oral, F, C57BL/6, Reproductive: Increased progesterone levels): 5 mg/kg-day
- NOAEL (Mus musculus [1]; short-term, duration: 5 days, oral, F, Hepatic: Increases in liver weight and hepatocellular hypertrophy at ?1 mg/kg): 10 mg/kg-day
- LOAEL (Mus musculus [1]; short-term, duration: 7 days, oral, F, BALB/c, Body Weight: 36% decrease in body weight gain + Immunotoxicological: Inhibition of T-and B-lymphocyte proliferation in response to sRBC / …): 20 mg/kg-day
- NOAEL (Mus musculus [1]; short-term, duration: 7 days, oral, F, BALB/c, Hepatic: 32% increase in relative liver weight): 20 mg/kg-day
- LOAEL (Mus musculus [1]; short-term, duration: 7 days, oral, M, Body Weight: 14% decreased mean body weight + Immunotoxicological: 40% reduction in spleen weight and 79% reduction in thymus weight): 33 mg/kg-day
- LOAEL (Mus musculus [1]; short-term, duration: 7 days, oral, M, Body Weight: >10% reduced final body weight): 24 mg/kg-day
- NOAEL (Mus musculus [1]; short-term, duration: 7 days, oral, M, Hepatic: 2-fold increase in absolute liver weight): 24 mg/kg-day
- NOAEL (Mus musculus [1]; short-term, duration: 7 days, oral, M, Hepatic: 86% increase in absolute liver weight): 33 mg/kg-day
- NOAEL (Mus musculus [1]; short-term, duration: 7 days, oral, M, Hepatic: Hepatocellular hypertrophy, steatosis, and increased hepatic triglyceride levels): 10 mg/kg-day
- LOAEL (Mus musculus [1]; short-term, duration: 7 days, oral, M, Immunotoxicological: Decreased humoral response to immunization with horse red blood cells): 24 mg/kg-day
- LOAEL (Mus musculus [1]; [14]): 15 mg/kg-day
- NOAEL (Mus musculus [1]; [14]): 7.5 mg/kg-day
- LOAEL (Mus musculus [1]; short-term, duration: 10 days, oral, M, Body Weight: 17% decrease in final body weight): 30 mg/kg-day
- LOAEL (Mus musculus [1]; short-term, duration: 10 days, oral, M, Body Weight: 25% body weight loss after 5 days of treatment): 78 mg/kg-day
- LOAEL (Mus musculus [1]; short-term, duration: 10 days, oral, M, Body Weight: 25% body weight loss after 10 days of treatment): 78 mg/kg-day
- NOAEL (Mus musculus [1]; short-term, duration: 10 days, oral, M, C57BL/6, Hepatic: 68% increase in liver weight, hepatocellular hypertrophy, and decreased serum cholesterol levels): 2 mg/kg-day
- NOAEL (Mus musculus [1]; short-term, duration: 10 days, oral, M, Hepatic: 35% increase in absolute liver weight at ?1 mg/kg/day): 1 mg/kg-day
- NOAEL (Mus musculus [1]; short-term, duration: 10 days, oral, M, Hepatic: 74% increase in absolute liver weight at ?78 mg/kg/day): 390 mg/kg-day
- NOAEL (Mus musculus [1]; short-term, duration: 10 days, oral, M, Hepatic: 74% increase in absolute liver weight in 5 days at ?78 mg/kg/day): 390 mg/kg-day
- NOAEL (Mus musculus [1]; short-term, duration: 10 days, oral, M, Hepatic: >90% increase in absolute and relative liver weight): 30 mg/kg-day
- LOAEL (Mus musculus [1]; short-term, duration: 10 days, oral, M, Immunotoxicological: 40-50% decrease in spleen and thymus weights): 11.5 mg/kg-day
- LOAEL (Mus musculus [1]; short-term, duration: 10 days, oral, M, Immunotoxicological: 86% reduction in absolute thymus weight / 30% reduction in absolute spleen weight): 30 mg/kg-day
- NOAEL (Mus musculus [1]; short-term, duration: 15 days, oral, F): 7.5 mg/kg-day
- LOAEL (Mus musculus [1]; short-term, duration: 15 days, oral, F, Body Weight: 14-20% decrease in body weight in wild-type mice): 30 mg/kg-day
- LOAEL (Mus musculus [1]; short-term, duration: 21 days, oral, M, ICR, Immunotoxicological: Marked hyperplasia in spleen white pulp and thymic atrophy): 47.2 mg/kg-day
- NOAEL (Mus musculus [1]; subchronic, duration: 6 weeks, oral, M/F, BALB/c, Hepatic: 54-65% increase in relative liver weight / 20% increase in plasma cholesterol in males): 0.55 mg/kg-day
- NOAEL (Mus musculus [1]; subchronic, duration: 6 weeks, oral, M/F, C57BL/6, Hepatic: 66-67% increase in relative liver weight in males / increased plasma cholesterol levels in males (35%) and females (70%)): 0.55 mg/kg-day
- NOAEL (Oryctolagus sp.): 50 mg/kg-day
- LEL (Mus musculus [2]): 0.01 mg/kg-day
